Some test systems named below: A498 renal; HOP-92 NSCLC; SF-295 CNS; K-562 leukemia; NCI-H23 lung; LOX IMVI melanoma; HCT-116 colon; MOLT-4 leukemia; SF-268 CNS; NCI-H226 lung.
Test in all cases: NCI anticancer screen, dose series, 48 h

Several values for one entry are separate records, joined by “and”; a condition that tells them apart may be missing. Equal values may be shown once.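 Exposure lasted 48 hours, with cells grown in 96-well plates and compounds tested at five concentrations. Abbreviation: GI50, concentration required for 50% inhibition of growth. Definition used: TGI = concentration required for complete inhibition of growth.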

With `Clc1ccc(CSC(Cn2ccnc2)c2ccc(Cl)cc2Cl)cc1` (stereo not given), the GI50 is 1.13 µM with A498 renal; 0.914 µM with HOP-92 NSCLC; 1.37 µM in the assay with SF-295 CNS; 2 µM in the assay on K-562 leukemia; 1.5 µM in the assay on NCI-H23 lung; 1.59 µM in the assay with LOX IMVI melanoma. Besides, the GI50 is 1.26 µM in the assay with HCT-116 colon, 1.72 µM in the assay with MOLT-4 leukemia, 1.66 µM in the assay on SF-268 CNS and 1.38 µM with NCI-H226 lung. For the same compound, the TGI with A498 renal came out at 2.33 µM; in the assay with HOP-92 NSCLC, 2.44 µM; in the assay with SF-295 CNS, 2.89 µM; in the assay on K-562 leukemia, 4.81 µM; in the assay with NCI-H23 lung it was 3.6 µM; with LOX IMVI melanoma, 2.93 µM. For the same compound, the TGI with HCT-116 colon is 2.51 µM; in the assay on MOLT-4 leukemia it was 4.87 µM; with SF-268 CNS, 3.83 µM; in the assay with NCI-H226 lung, 2.84 µM.
For the compound `Cc1c2cc[n+](C)cc2c(C)c2c1sc1ccccc12`, the TGI was 13.6 µM in the assay on A498 renal; 9.75 µM with HOP-92 NSCLC; 0.783 µM with SF-295 CNS; 41.3 µM in the assay on K-562 leukemia; 2.29 µM in the assay on NCI-H23 lung; 22.1 µM in the assay on LOX IMVI melanoma. The TGI in the assay on HCT-116 colon was found to be 23.7 µM; in the assay on MOLT-4 leukemia, 5.57 µM; with SF-268 CNS, 1.14 µM; in the assay on NCI-H226 lung, 2.11 µM.
Consider `C/C(=N\NC(=O)c1sc(=S)n(C)c1N)c1cc2ccccc2o1`, for which the GI50 with A498 renal is 4.58 µM; in the assay with HOP-92 NSCLC it was 10.3 µM; with SF-295 CNS it was 14.4 µM; with K-562 leukemia, 6.38 µM; with NCI-H23 lung it was 17.7 µM; in the assay with LOX IMVI melanoma, 7.05 µM. The GI50 in the assay with HCT-116 colon is 16.2 µM; in the assay with MOLT-4 leukemia it was 3.51 µM; with SF-268 CNS, 14.4 µM; with NCI-H226 lung it was 18.7 µM. Also, the TGI is 18.9 µM with A498 renal; 25.4 µM in the assay on HOP-92 NSCLC; 30 µM with SF-295 CNS; 30.8 µM in the assay with K-562 leukemia; 58.8 µM in the assay on NCI-H23 lung; 20.1 µM with LOX IMVI melanoma. In addition, the TGI was 32 µM in the assay on HCT-116 colon, 29.1 µM in the assay with MOLT-4 leukemia, 37.4 µM with SF-268 CNS and 40.4 µM in the assay with NCI-H226 lung.
Take `F`: the GI50 in the assay on A498 renal is 1620 µM; with HOP-92 NSCLC, 1850 µM; with SF-295 CNS it was 2050 µM; in the assay with K-562 leukemia, 3630 µM; in the assay on NCI-H23 lung, 5260 µM; with LOX IMVI melanoma it was 2290 µM. Also, the GI50 was 2820 µM in the assay on HCT-116 colon, greater than 6870 µM in the assay with MOLT-4 leukemia, 3540 µM in the assay on SF-268 CNS and greater than 6870 µM in the assay with NCI-H226 lung. Further, the TGI was 4390 µM in the assay with A498 renal; greater than 6870 µM in the assay with HOP-92 NSCLC; 6380 µM with SF-295 CNS; greater than 6870 µM in the assay on K-562 leukemia; greater than 6870 µM with NCI-H23 lung; greater than 6870 µM with LOX IMVI melanoma. Moreover, the TGI with HCT-116 colon, in the assay on MOLT-4 leukemia, in the assay on SF-268 CNS and with NCI-H226 lung was greater than 6870 µM throughout.
As for `COc1ccccc1/C=C(\C#N)c1ccccc1`, the TGI in the assay on A498 renal was 66.1 µM; in the assay with HOP-92 NSCLC, greater than 100 µM; in the assay on SF-295 CNS it was greater than 100 µM; with K-562 leukemia, 33.8 µM; in the assay on NCI-H23 lung, greater than 100 µM; with LOX IMVI melanoma it was greater than 100 µM. In addition, the TGI in the assay with HCT-116 colon was greater than 100 µM; in the assay with MOLT-4 leukemia it was 97.3 µM; in the assay with SF-268 CNS, greater than 100 µM; with NCI-H226 lung it was greater than 100 µM.
As to `CC[C@]12CCCN3CCc4c(n(c5ccccc45)C(=O)C1)[C@@H]32`, the TGI in the assay on A498 renal is greater than 65.9 µM; with HOP-92 NSCLC it was greater than 100 µM; in the assay with SF-295 CNS, 18.4 µM; in the assay with K-562 leukemia it was greater than 100 µM; with NCI-H23 lung, greater than 100 µM; with LOX IMVI melanoma it was greater than 100 µM. Also, the TGI with HCT-116 colon was greater than 49.6 µM; in the assay with MOLT-4 leukemia, greater than 58.2 µM; in the assay with SF-268 CNS it was greater than 75 µM; in the assay on NCI-H226 lung, greater than 100 µM.
On to `COc1cc2c(cc1O)CC[C@@H]1[C@@H]2CC[C@]2(C)[C@@H](NCCN(C)C)CC[C@@H]12`, for which the GI50 is 0.164 µM with A498 renal; 0.124 µM in the assay on HOP-92 NSCLC; 0.163 µM in the assay on SF-295 CNS; 0.0886 µM with K-562 leukemia; 0.161 µM in the assay on NCI-H23 lung; 0.11 µM with LOX IMVI melanoma. In addition, the GI50 in the assay on HCT-116 colon was 0.139 µM; in the assay on MOLT-4 leukemia, 0.187 µM; with SF-268 CNS, 0.267 µM; with NCI-H226 lung, 0.698 µM. In addition, the TGI in the assay on A498 renal came to 0.636 µM; with HOP-92 NSCLC it was 0.742 µM; in the assay with SF-295 CNS, 0.61 µM; in the assay on K-562 leukemia, 0.395 µM; with NCI-H23 lung it was 0.636 µM; in the assay with LOX IMVI melanoma, 0.405 µM. The TGI was found to be 0.522 µM in the assay on HCT-116 colon, 0.695 µM with MOLT-4 leukemia, 0.753 µM in the assay with SF-268 CNS and 1.59 µM in the assay on NCI-H226 lung.
Turning to `CCN1CCN(Cc2ccc(-c3cc4c(N[C@H](C)c5ccccc5)ncnc4[nH]3)cc2)CC1`, the GI50 in the assay with A498 renal is 0.947 µM and 0.35 µM; with HOP-92 NSCLC, 0.167 µM and 0.523 µM; in the assay on SF-295 CNS it was 1.62 µM and 3.09 µM; in the assay with K-562 leukemia, 0.49 µM and 0.626 µM; in the assay with NCI-H23 lung, 7.39 µM and > 10 µM; in the assay on LOX IMVI melanoma, 1.51 µM and 1.24 µM. The GI50 with HCT-116 colon is 2.8 µM and 2.87 µM; with MOLT-4 leukemia, 2.62 µM and 2.39 µM; in the assay with SF-268 CNS it was 2.43 µM and 4.11 µM; in the assay on NCI-H226 lung, 3.03 µM and 7.73 µM. Besides, the TGI in the assay on A498 renal is 2.82 µM and 2.08 µM; with HOP-92 NSCLC, 4.21 µM and > 10 µM; in the assay on SF-295 CNS, 4.2 µM and > 10 µM; with K-562 leukemia, 12.4 µM and > 10 µM; with NCI-H23 lung it was 33.3 µM and > 10 µM; in the assay with LOX IMVI melanoma, 3.06 µM and 2.78 µM. Further, the TGI is 14.4 µM and > 10 µM with HCT-116 colon; 9.35 µM and > 10 µM in the assay on MOLT-4 leukemia; 18.7 µM and > 10 µM with SF-268 CNS; 24.7 µM and > 10 µM in the assay on NCI-H226 lung.
Turning to `CN1N=CSC12C(=O)N(c1ccc(Cl)cc1)C(=O)N2c1ccc(Cl)cc1` (stereo not given), the TGI in the assay on A498 renal came out at 9.67 µM; in the assay on HOP-92 NSCLC, 8.92 µM; in the assay on SF-295 CNS, 9.16 µM; in the assay on K-562 leukemia it was 22.3 µM; in the assay on NCI-H23 lung it was 5.14 µM; with LOX IMVI melanoma, 8.91 µM. Besides, the TGI was 13.3 µM in the assay with HCT-116 colon, 12.3 µM in the assay on MOLT-4 leukemia, greater than 100 µM in the assay with SF-268 CNS and 8.66 µM with NCI-H226 lung.
